The results in this text go back to US6331555A, “Treatment of platelet derived growth factor related disorders such as cancers” (priority 1999, dated 2001).

For this test, the system named is spleen cells. Put plainly: Normal immune function in rats bearing a primary tumor. In kind it is in vivo, rat. On the set-up: key to 3H-thymidine uptake: 0: no change; +/-: decrease in some drug-treated animals to levels detected in normal (non-tumor-bearing, non-drug-treated) animals. The note with it: 8.4 mg/kg/day. An excerpt:
At the indicated times, animals were sacrificed, and the spleens were aseptically removed and placed into sterile medium. Spleens were processed into single cell suspensions by grinding between sterile frosted glass microscope slides. After a single wash to remove tissue debris, the spleen cells were resuspended in a hypotonic ammonium chloride buffer to lyse erythrocytes. Lymphocytes were washed and resuspended to the appropriate concentrations in complete medium, consisting of RPMI plus 10% heat-inactivated FBS, 2 mM glutamine, 50 μM β-mercaptoethanol, and penicillin-streptomycin. The responses of the lymphocytes were examined in the following assays according to accepted procedures (Current Protocols in Immunology. Coligan, J. E., Kruisbeek, A. M., Margulies, D. H., Shevach, E. M., Strober, W. (eds.) John Wiley and Sons, Inc., 1992).
The T-cell mitogen, ConA, and the T-cell independent B-cell mitogen, LPS, were added to 96-well round-bottom wells at the indicated concentrations. Lymphocytes from normal, vehicle-dosed, and drug-dosed animals were added at a final concentration of 2.5×10^5 /well. Cultures were usually set up in triplicate or quadruplicate. The plates were incubated at 37° C. in a humidified atmosphere containing 5% CO2 for the indicated times. Supernatants (approximately 100 μL) were carefully removed from the wells and stored at -80° C. for lymphokine and immunoglobulin analyses. To measure proliferation of the lymphocytes, 1 μCi of ^3 H-thymidine was added to each well, and the plates were incubated for 6 hr. The cultures were harvested onto glass fiber filters, and the incorporated radioactivity was quantitated by liquid scintillation counting (Betaplate, Wallac).
Lymphocytes from normal, vehicle-dosed, and drug-dosed animals were plated at 2.5×10^5 /well in round-bottom 96-well plates. Stimulator cells were then added at the same cell concentration. The stimulator cells consisted of syngeneic or allogeneic lymphocytes which had been treated with 50 μg/mL of mitomycin C for 30 min prior to the assay. The plates were incubated for 3 to 4 days, at which time supernatants were harvested and the cultures were pulsed as described for the mitogen assays.
Supernatants from mitogen and MLR cultures were assayed for IL-2 and IL-6 content by the ability to support the growth of factor-dependent cell lines. HT-2 cells (10^4 /well, IL-2-dependent) and 7TD1 cells (2×10^3 /well, IL-6-dependent) were plated in 96-well flat-bottom plates, in 50 μL/well. Supernatants were added in 50 μL/well, and the plates were incubated overnight (HT-2) or four days (7TD1). Cellular proliferation was determined in the MTT colorimetric assay (Appendix 3.1).
Wistar rats received SC implants of C6 cells on day 0. […] The control group was not treated after tumor implantation. On day 21, the animals were sacrificed and the spleens were removed for in vitro analyses. Splenocytes were stimulated with ConA, LPS, and alloantigen (DA rat spleen cells) as in the murine studies.

For `Cc1oncc1C(=O)Nc1ccc(C(F)(F)F)cc1` [Compound A10, 5-methylisoxazole-4 carboxylic acid-(4-trifluromethyl)-anilide], the “syngeneic MLR proliferative response” value is “reduced in one of four A10-treated tumor-bearing animals”. Besides, where the note is “Allo”, the 3H-thymidine uptake is given as 0, the IL-2 production was determined as 0 and the IL-6 production is recorded as 0. For the same compound, where the note is “ConA”, the 3H-thymidine uptake was determined as 0, the IL-2 production is listed as 0 and the IL-6 production is given as 0. For the setting “LPS”, this compound registered a 3H-thymidine uptake of 0, an IL-2 production of 0 and an IL-6 production of 0. Under “Syn”, the 3H-thymidine uptake entry is recorded as “+/-”, the IL-2 production was 0 and the IL-6 production is listed as 0. Under “Tumor stimulus”, this compound had a 3H-thymidine uptake of 0, an IL-2 production of 0 and an IL-6 production of 0.
